According to the NIST ThermoML archive (doi:10.1016/j.tca.2013.05.030):

Assay: mn = molality of the nth substance listed, in mol/kg
Conditions: 101 kPa, Liquid; for viscosity: Capillary tube (Ostwald / Ubbelohde) method; for mass density: Pycnometric method; for speed of sound: Sing-around technique in a fixed-path interferometer

CC(C)Cc1ccc(C(C)C(=O)[O-])cc1.[Na+] (stereo not given) [sodium ibuprofen] + O
Conditions	mass density [kg/m3]	speed of sound [m/s]	viscosity [mPa·s]
298.15 K, m1 = 0.1048	1001.4	1512.8	0.973
298.15 K, m1 = 0.1525	1003.2	1518.4	1.007
298.15 K, m1 = 0.2231	1005.8	1525.6	1.07
298.15 K, m1 = 0.3179	1009.1	1533.2	1.173
298.15 K, m1 = 0.3721	1010.9	1536.4	1.242
298.15 K, m1 = 0.4422	1013.1	1540	1.342
298.15 K, m1 = 0.4678	1013.9	1540.8	1.381
303.15 K, m1 = 0.1048	999.9	1523.6	0.867
303.15 K, m1 = 0.1525	1001.7	1528.4	0.897
303.15 K, m1 = 0.2231	1004.3	1534.4	0.953
303.15 K, m1 = 0.3179	1007.5	1540.8	1.043
303.15 K, m1 = 0.3721	1009.3	1543.2	1.104
303.15 K, m1 = 0.4422	1011.5	1546.4	1.194
303.15 K, m1 = 0.4678	1012.3	1547.2	1.228
308.15 K, m1 = 0.1048	998.2	1532	0.78
308.15 K, m1 = 0.1525	1000	1536.4	0.808
308.15 K, m1 = 0.2231	1002.5	1542	0.857
308.15 K, m1 = 0.3179	1005.7	1548	0.937
308.15 K, m1 = 0.3721	1007.4	1550.8	0.992
308.15 K, m1 = 0.4422	1009.6	1553.6	1.072
308.15 K, m1 = 0.4678	1010.4	1554.4	1.104
313.15 K, m1 = 0.1048	996.3	1539.2	0.707
313.15 K, m1 = 0.1525	998	1542.8	0.732
313.15 K, m1 = 0.2231	1000.5	1547.6	0.777
313.15 K, m1 = 0.3179	1003.6	1552.8	0.848
313.15 K, m1 = 0.3721	1005.3	1555.2	0.898
313.15 K, m1 = 0.4422	1007.4	1557.2	0.969
313.15 K, m1 = 0.4678	1008.1	1558	0.997

O [water] + CC(C)Cc1ccc(C(C)C(=O)[O-])cc1.[Na+]
Conditions	speed of sound [m/s]
313.15 K, m2 = 0	1528.8
